Source: publication PMC5012566, “A Cell-Based Assay for Measuring Endogenous BcrAbl Kinase Activity and Inhibitor Resistance” (PLoS ONE, 2016)

Experiments:
K562-NR cells [1] = experiment: cells; details: Homo sapiens, read-out: Growth Inhibition IC50 (95% CI)
K562-NR cells [2] = details: cross-resistance, relative to parental
K562 cells = details: parental K562 cells; 10 nM dasatinib; Fig 6C
[3] = system: chronic myeloid leukemia (CML); details: cited from earlier work
K562-DR cells = experiment: cells; details: Homo sapiens, read-out: Growth Inhibition IC50 (95% CI)

IC50 (K562-NR cells [1])	IC50 (K562-DR cells)	Compound	cell growth inhibition (in words) (K562-NR cells [2])	cell growth at the level consistent with resistant culture conditions (K562 cells)	response rate [3]
3.6 nM		Cc1nc(Nc2ncc(C(=O)Nc3c(C)cccc3Cl)s2)cc(N2CCN(CCO)CC2)n1 [dasatinib]	somewhat less potent	lack of growth	
		Cc1ccc(NC(=O)c2ccc(CN3CCN(C)CC3)cc2)cc1Nc1nccc(-c2cccnc2)n1 [imatinib]	unable to inhibit growth at any of the concentrations tested		80%
718 nM	25 nM	Cc1cn(-c2cc(NC(=O)c3ccc(C)c(Nc4nccc(-c5cccnc5)n4)c3)cc(C(F)(F)F)c2)cn1 [nilotinib]			
